Read-outs that look alike come from different tables or passages of the source.
Assays:
[1] = biological target: T1, recombinant DPP-4 enzyme D4943 (Homo sapiens, UniProt P27487); parameters: method as in PMID 35337071; conditions: neogliptin reference value; cited from earlier work
T1 construct: purchased Sigma-Aldrich D4943

[2] = biological target: T2, DPP-8 (Homo sapiens, UniProt Q6V1X1); parameters: method as in PMID 35337071; conditions: neogliptin reference value; cited from earlier work
T2 construct: purchased BPS Bioscience
T2 sequence (Q6V1X1 whole entry): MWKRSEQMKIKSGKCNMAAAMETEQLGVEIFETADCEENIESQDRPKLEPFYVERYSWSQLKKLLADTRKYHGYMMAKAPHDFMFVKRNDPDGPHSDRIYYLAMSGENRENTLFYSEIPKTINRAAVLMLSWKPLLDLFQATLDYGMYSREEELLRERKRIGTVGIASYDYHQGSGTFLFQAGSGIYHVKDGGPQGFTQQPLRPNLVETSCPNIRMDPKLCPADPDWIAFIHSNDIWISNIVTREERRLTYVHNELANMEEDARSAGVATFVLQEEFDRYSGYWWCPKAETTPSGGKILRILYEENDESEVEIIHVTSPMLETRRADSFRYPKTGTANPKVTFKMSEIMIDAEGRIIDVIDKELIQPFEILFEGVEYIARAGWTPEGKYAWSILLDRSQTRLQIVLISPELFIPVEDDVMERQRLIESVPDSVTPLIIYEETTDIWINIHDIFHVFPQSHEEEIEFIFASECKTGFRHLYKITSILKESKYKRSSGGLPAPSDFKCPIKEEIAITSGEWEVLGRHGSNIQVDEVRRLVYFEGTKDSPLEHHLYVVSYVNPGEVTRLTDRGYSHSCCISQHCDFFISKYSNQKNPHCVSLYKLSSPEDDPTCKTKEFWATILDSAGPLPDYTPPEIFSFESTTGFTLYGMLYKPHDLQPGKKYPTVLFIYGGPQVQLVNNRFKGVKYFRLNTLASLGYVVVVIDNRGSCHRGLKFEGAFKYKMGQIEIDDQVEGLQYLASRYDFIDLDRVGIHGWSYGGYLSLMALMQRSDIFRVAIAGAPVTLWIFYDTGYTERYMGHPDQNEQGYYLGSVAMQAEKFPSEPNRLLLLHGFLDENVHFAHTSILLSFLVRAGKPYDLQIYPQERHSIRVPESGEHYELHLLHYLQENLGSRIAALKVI

[3] = biological target: T3, DPP-9 (Homo sapiens, UniProt Q86TI2); parameters: method as in PMID 35337071; conditions: neogliptin reference value; cited from earlier work
T3 construct: purchased BPS Bioscience
T3 sequence (Q86TI2 whole entry): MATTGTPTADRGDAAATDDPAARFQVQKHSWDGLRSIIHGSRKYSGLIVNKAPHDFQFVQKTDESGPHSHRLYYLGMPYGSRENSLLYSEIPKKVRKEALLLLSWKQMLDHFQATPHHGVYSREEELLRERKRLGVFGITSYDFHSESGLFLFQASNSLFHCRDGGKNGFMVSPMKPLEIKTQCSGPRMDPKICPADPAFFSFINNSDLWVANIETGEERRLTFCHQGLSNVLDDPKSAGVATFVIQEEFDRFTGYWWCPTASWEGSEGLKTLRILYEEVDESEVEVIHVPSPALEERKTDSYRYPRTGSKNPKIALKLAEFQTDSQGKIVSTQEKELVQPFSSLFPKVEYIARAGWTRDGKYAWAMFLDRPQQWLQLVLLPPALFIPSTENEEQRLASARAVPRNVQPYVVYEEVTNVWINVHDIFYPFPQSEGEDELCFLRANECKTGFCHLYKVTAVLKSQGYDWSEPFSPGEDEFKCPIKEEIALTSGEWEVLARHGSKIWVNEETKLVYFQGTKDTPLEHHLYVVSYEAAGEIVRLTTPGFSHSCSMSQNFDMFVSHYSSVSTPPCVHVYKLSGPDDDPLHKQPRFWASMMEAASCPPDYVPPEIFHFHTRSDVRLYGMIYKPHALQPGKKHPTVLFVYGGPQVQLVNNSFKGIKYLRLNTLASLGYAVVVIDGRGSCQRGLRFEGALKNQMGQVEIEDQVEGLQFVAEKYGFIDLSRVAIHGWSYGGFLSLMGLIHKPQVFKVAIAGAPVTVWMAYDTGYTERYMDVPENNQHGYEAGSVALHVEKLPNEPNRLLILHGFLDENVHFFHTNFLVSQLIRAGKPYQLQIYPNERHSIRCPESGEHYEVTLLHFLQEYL

[4] = biological target: T1, recombinant DPP-4 enzyme D4943; assay: DPP-4 enzyme inhibitory assay, chromogenic substrate Gly-Pro-pNA, absorbance at 405 nm; type: biochemical; conditions: 37 °C for 30 min, pH = 7.6, dilution range 10^−4 to 10^−11 M
Method: (§1) The assessment of DPP-4 enzyme inhibitory activities for the synthesised compounds was performed using protocols similar to those previously described in the literature. […] Following a brief incubation period (37 °C for 30 min), absorbance at 405 nm was measured. Initial optimisation of the procedure utilised reference compounds. […] Correspondingly, the analysis of inhibition activity for related enzymes was executed using DPP-8 and DPP-9 inhibition assays, where the compounds were studied in the dilution range 10^−2 to 10^−8 M (Table 2).
(§2) For the in vitro assays, we used the substrate Gly-Pro-p-nitroanilide (H-Gly-Pro pNA HCl, G0513) and recombinant dipeptidyl peptidase-4 enzyme (D4943), which were purchased from Sigma-Aldrich (St. Louis, MO, USA). Samples containing DPP-4 (0.0015 U/well) and varying concentrations of test compounds were incubated with the chromogenic peptide substrate, G0513 (90 µg/well), in a total volume of 100 µL of buffer system (50 mM Tris-HCl, 50 mM NaCl, 0.01% Triton, pH = 7.6). The mixtures were incubated at 37 ◦C for 30 min, and the absorbance at 405 nm was measured using the microplate reader ChemWell (Awareness Technology Inc., Palm City, FL, USA). The DPP-4 inhibitory activities for each test compound were calculated. IC50 values were obtained using GraphPad Prism 8 software. The inhibition activity analysis of the related enzymes was performed using the “Fluorogenic DPP-8 Assay Kit” and “Fluorogenic DPP-9 Assay Kit”, both purchased from BPS Bioscience (San Diego, CA, USA). The dilution range for every compound was 10^−2–10^−8 M.

[5] = biological target: T2, DPP-8; assay: Fluorogenic DPP-8 Assay Kit inhibition assay; type: biochemical; conditions: for IC50: dilution range 10^−2 to 10^−8 M
Method: as §1, §2

[6] = biological target: T3, DPP-9; assay: Fluorogenic DPP-9 Assay Kit inhibition assay; type: biochemical; conditions: for IC50: dilution range 10^−2 to 10^−8 M
Method: as §1, §2

[7] = concentration range 10^−3–10^−6 M

T1 sequence (P27487 whole entry): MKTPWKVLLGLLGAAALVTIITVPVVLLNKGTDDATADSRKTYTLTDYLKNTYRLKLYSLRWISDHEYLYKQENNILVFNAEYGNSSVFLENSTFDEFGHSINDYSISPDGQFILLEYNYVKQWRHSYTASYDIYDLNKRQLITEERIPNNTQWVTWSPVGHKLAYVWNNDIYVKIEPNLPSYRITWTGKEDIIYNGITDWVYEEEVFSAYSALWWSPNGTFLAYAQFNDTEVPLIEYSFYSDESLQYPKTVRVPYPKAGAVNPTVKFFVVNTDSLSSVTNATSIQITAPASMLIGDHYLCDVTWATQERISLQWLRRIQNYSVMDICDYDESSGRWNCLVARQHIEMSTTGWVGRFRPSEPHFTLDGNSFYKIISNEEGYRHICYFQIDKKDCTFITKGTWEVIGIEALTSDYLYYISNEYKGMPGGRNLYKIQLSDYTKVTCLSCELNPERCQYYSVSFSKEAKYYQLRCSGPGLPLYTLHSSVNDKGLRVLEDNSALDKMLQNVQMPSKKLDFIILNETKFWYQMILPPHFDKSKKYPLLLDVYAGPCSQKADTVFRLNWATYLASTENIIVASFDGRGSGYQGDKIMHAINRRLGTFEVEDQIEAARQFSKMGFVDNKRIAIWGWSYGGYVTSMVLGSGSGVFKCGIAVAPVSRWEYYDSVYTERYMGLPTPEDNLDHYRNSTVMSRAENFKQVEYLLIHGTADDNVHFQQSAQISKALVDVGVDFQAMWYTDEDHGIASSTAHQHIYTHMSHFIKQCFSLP

SMILES	IC50 [4] [nM]	IC50 [5] [nM]	IC50 [6] [nM]	IC50 [1] [nM]	IC50 [2] [nM]	IC50 [3] [nM]	DPP-8 inhibitory activity (in words) [5, 7]	DPP-9 inhibitory activity (in words) [6, 7]
N#CC1C2CCC(C2)N1C(=O)CC(N)Cc1cc(F)c(F)cc1F (centres unmarked) [Neogliptin, neogliptin]				16.8	> 1000	> 1000		
N[C@@H](CC(=O)N1C2CCC(C2)[C@H]1c1noc(-c2ccccc2)n1)Cc1cc(F)c(F)cc1F (stereo partly drawn) [3a, (3R)-3-Amino-1-[(3S)-3-(5-phenyl-1,2,4-oxadiazol-3-yl)-2-azabicyclo [2.2.1]heptan-2-yl]-4-(2,4,5-trifluorophenyl)butan-1-one]	21.6	> 1000	> 1000					

Now from value to compound, other results behind:

IC50 [4] [nM]	IC50 [5] [nM]	IC50 [6] [nM]	SMILES	IC50 [1] [nM]	IC50 [2] [nM]	IC50 [3] [nM]	DPP-8 inhibitory activity (in words) [5, 7]	DPP-9 inhibitory activity (in words) [6, 7]
> 1000	> 1000	> 1000	N[C@@H](CC(=O)N1C2CCC(C2)[C@@H]1c1noc(-c2ccccc2)n1)Cc1cc(F)c(F)cc1F (stereo partly drawn) [3b, (3R)-3-Amino-1-[(3R)-3-(5-phenyl-1,2,4-oxadiazol-3-yl)-2-azabicyclo[2.2.1]heptan-2-yl]-4-(2,4,5-trifluorophenyl)butan-1-one]					
4.3	> 1000	> 1000	N[C@@H](CC(=O)N1C2CCC(C2)[C@H]1c1nc(-c2ccccc2)no1)Cc1cc(F)c(F)cc1F (stereo partly drawn) [9a, (3R)-3-Amino-1-[(3S)-3-(3-phenyl-1,2,4-oxadiazol-5-yl)-2-azabicyclo[2.2.1]heptan-2-yl]-4-(2,4,5-trifluorophenyl)butan-1-one]				did not mediate any substantial inhibition	did not mediate any substantial inhibition
> 1000	> 1000	> 1000	N[C@@H](CC(=O)N1C2CCC(C2)[C@@H]1c1nc(-c2ccccc2)no1)Cc1cc(F)c(F)cc1F (stereo partly drawn) [9b, (3R)-3-Amino-1-[(3R)-3-(3-phenyl-1,2,4-oxadiazol-5-yl)-2-azabicyclo[2.2.1]heptan-2-yl]-4-(2,4,5-trifluorophenyl)butan-1-one]					
